{"source": "paper PMC4529334", "about": "“Activity of second-generation ALK inhibitors against crizotinib-resistant mutants in an NPM-ALK model compared to EML4-ALK” (Cancer Medicine, 2015)", "key": {"[1]": {"test_system": "EML4-ALK (EA WT)", "settings": "[…] h, […] °C, no IL-3; ALK-dependent cell growth; stated gain"}, "[2]": {"test_system": "NPM-ALK (NA WT)", "settings": "[…] h, […] °C, no IL-3; ALK-dependent cell growth; stated gain", "from_the_text": "Ba/F3 proliferation, [3H]-thymidine incorporation on NPM-ALK (NA WT)"}, "[3]": {"test_system": "T1, NPM-ALK (NA WT)", "T1 construct": "NPM-ALK fusion from t(2;5)(p23;q35), pcDNA3.0, stably expressed in murine Ba/F3 cells (IL-3-independent); single fused polypeptide NPM1 N-terminal part + ALK C-terminal part with kinase domain; with Nucleophosmin", "test": "Ba/F3 proliferation, [3H]-thymidine incorporation", "format": "cell-based, Homo sapiens", "settings": "[…] °C, no IL-3, ALK-dependent cell growth, parental Ba/F3 as control"}, "[4]": {"test_system": "T2, EML4-ALK (EA WT)", "T2 construct": "EML4-ALK fusion (EML4 exon 6 to ALK exon 20) in pCDH-CMV-MCS-EF1-Puro, stably expressed in murine Ba/F3 cells (IL-3-independent); single fused polypeptide; with Echinoderm microtubule-associated protein-like 4", "test": "Ba/F3 proliferation, [3H]-thymidine incorporation", "format": "cell-based, Homo sapiens", "settings": "[…] °C, no IL-3, ALK-dependent cell growth, parental Ba/F3 as control", "from_the_text": "Ba/F3 proliferation, [3H]-thymidine incorporation on EML4-ALK (EA WT)"}, "[5]": {"test_system": "T1, NPM-ALK (NA WT)", "test": "Ba/F3 proliferation, [3H]-thymidine incorporation", "format": "cell-based, Homo sapiens", "settings": "[…] °C, no IL-3, ALK-dependent cell growth, stated gain"}, "[6]": {"test_system": "T1, NPM-ALK (NA WT)", "test": "Ba/F3 proliferation, [3H]-thymidine incorporation", "format": "cell-based, Homo sapiens", "settings": "[…] °C, no IL-3, ALK-dependent cell growth, parental Ba/F3 as control", "remark": "listed apart in the source"}, "[7]": {"test_system": "T2, EML4-ALK (EA WT)", "test": "Ba/F3 proliferation, [3H]-thymidine incorporation", "format": "cell-based, Homo sapiens", "settings": "[…] °C, no IL-3, ALK-dependent cell growth, parental Ba/F3 as control", "remark": "listed apart in the source"}}}
{"smiles": "COc1cc(N2CCC(N3CCN(C)CC3)CC2)ccc1Nc1ncc(Cl)c(Nc2ccccc2P(C)(C)=O)n1", "note": "[AP26113]", "values": [{"measurement": "IC50 (μmol/L) / AP26113", "setting": "[1]", "result": 0.021, "unit": "µmol/L"}]}
{"smiles": "COc1cc(N2CCC(N3CCN(C)CC3)CC2)ccc1Nc1ncnc(Nc2ccccc2S(=O)(=O)C(C)C)n1", "note": "[ASP3026]", "values": [{"measurement": "IC50 (μmol/L) / ASP3026", "setting": "[5]", "result": 2.763, "unit": "µmol/L"}, {"measurement": "IC50 (μmol/L) / ASP3026", "setting": "[6]", "result": 0.084, "unit": "µmol/L"}, {"measurement": "IC50 (μmol/L) / ASP3026", "setting": "[7]", "result": 0.056, "unit": "µmol/L"}]}
